Results taken from PubChem BioAssay (NCI).
Where “and” joins values, the source holds several entries; their conditions need not be identical. Equal values may be shown once.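 These data come from cells grown in 96-well plates and exposed to compound for 48 hours at five concentrations. GI50 is the concentration that inhibits growth by half. TGI is the concentration that stops growth completely.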

How the values were obtained:
Experiment in all cases: NCI tumour cell line growth inhibition, 48 h
M19-MEL melanoma = test system: M19-MEL melanoma
XF 498 CNS = test system: XF 498 CNS
DMS 273 small cell lung = test system: DMS 273 small cell lung
HOP-18 NSCLC = test system: HOP-18 NSCLC
SNB-78 CNS = test system: SNB-78 CNS
MDA-N = test system: MDA-N
BT-549 breast = test system: BT-549 breast
LXFL 529 NSCLC = test system: LXFL 529 NSCLC
RXF-631 renal = test system: RXF-631 renal
P388 leukemia = test system: P388 leukemia
SN12K1 renal = test system: SN12K1 renal

Row | SMILES | TGI (M19-MEL melanoma) | TGI (XF 498 CNS) [µM] | TGI (DMS 273 small cell lung) [µM] | TGI (HOP-18 NSCLC) [µM] | TGI (SNB-78 CNS) | TGI (MDA-N) [µM] | TGI (BT-549 breast) [µM] | TGI (LXFL 529 NSCLC) [µM] | TGI (RXF-631 renal) [µM] | GI50 (M19-MEL melanoma) [µM] | GI50 (SNB-78 CNS) [µM] | GI50 (MDA-N) [pM] | GI50 (BT-549 breast) [pM] | GI50 (P388 leukemia) [µM] | TGI (P388 leukemia) | GI50 (SN12K1 renal) [µM] | TGI (SN12K1 renal)
1 | O=C(CCN1CCCCC1)N1CCc2c([nH]c3ccccc23)C1c1cccnc1 (stereo not given) | 46.1 µM | 57.3 | > 100 | > 100 | > 100 µM | 75 | > 86.2 | 38.1 | > 80.7 |  |  |  |  |  |  |  | 
2 | CCOc1ccccc1N=Nc1c(-c2ccccc2)nn(C(=O)CC(=O)Nc2cccc(C)c2)c1-c1ccccc1 | > 100 µM | > 100 | > 100 | > 100 | > 100 µM |  |  | > 100 | > 100 |  |  |  |  |  |  |  | 
3 | O=C(Nc1ccc(Cl)cc1Cl)OC(Cn1cncn1)c1ccc(Cl)cc1Cl (stereo not given) | 30.8 µM | 27.9 | 31.4 | 41.5 | 38.6 µM |  |  | 30.6 | 33.2 |  |  |  |  |  |  |  | 
4 | O=C1/C(=C/c2ccc(Cl)cc2)CNC/C1=C\c1ccc(Cl)cc1 | 4.81 µM | 7.28 | 5.78 | 18 | 12.1 µM | 16.1 | 8.41 | 2.4 | 12.5 |  |  |  |  |  |  |  | 
5 | COC(=O)[C@@]12CC(C(C)C)[C@H]3CC(C(=O)C=C1OC)[C@H]32 (stereo not given in full) | > 100 µM | > 100 | > 100 | > 100 | > 100 µM |  |  | > 100 | > 100 |  |  |  |  |  |  |  | 
6 | CC(C)CCCCCCCCCCCCC(=O)NCC(=O)NC1C(O)C(O)C(Nc2ncnc3nc[nH]c23)OC1C(O)CO (stereo not given) | 0.0409 µM and 0.0156 µM |  | 0.00174 | 0.00108 | 0.0647 µM and 0.244 µM |  |  |  |  | 0.005 | 0.005 | < 10 | < 10 | 0.005 | 0.00616 µM and 0.00507 µM | 0.00646 | 0.332 µM and 0.223 µM
7 | O=C1C2C3CC(C4C5C=CC(C5)C34)C2C2C3CC(C12)C1C2C=CC(C2)C31 (stereo not given) | > 100 µM | > 100 | > 100 | > 100 | > 100 µM |  |  | > 100 | > 100 |  |  |  |  |  |  |  | 
8 | Nc1c(Cl)ncnc1NCCCCCCCCCCCCNc1ncnc(Cl)c1N | 18.8 µM | 3.02 | 10.2 | 83.1 | 3.54 µM |  |  | 20.5 | 9.72 |  |  |  |  |  |  |  | 
